Key:
[1] = tested on: allo-HSCT patients; assay: Retrospective study of 295 allo-HSCT patients: acute GvHD by antibiotic exposure; type: in vivo, human; conditions: until day 100; antibiotic exposure days −10 to 30
Protocol: 295 patients with acute myeloid leukemia (AML) or myelodysplastic syndrome (MDS) underwent allogeneic hematopoietic stem cell transplantation (allo-HSCT) with fludarabine plus busulfan as conditioning therapy and tacrolimus and methotrexate as GvHD prophylaxis from 2011 and 2016 at MD Anderson Cancer Center and were analyzed retrospectively. Patients were classified by antibiotic exposures, including those who received neither cefepime nor meropenem, those who received cefepime alone, those who received meropenem alone and those who received both cefepime and meropenem from day −10 to day after allo-HSCT. Acute GvHD was diagnosed by clinical and/or pathological findings, and graded according to standard criteria (Przepiorka et al., 1995).

[2] = Meropenem concentration in stool during drinking water administration; type: in vivo; conditions: 48 hours after starting meropenem treatment, normal SPF mice
Protocol: In a murine model with a mucin-deficient mutate strain of BT, piperacillin/tazobactam was given at a concentration of 3.2 g/L in combination with vancomycin and metronidazole dosed 1.5 mg daily by oral gavage from days −16 to −12 relative to transplant.
To further explore the relationship between meropenem and intestinal GvHD, the effects of meropenem on GvHD was examined in a mouse model of allo-HSCT. A method of administering meropenem to mice that mimicked the effects of meropenem on the intestinal microbiome of patients was developed. Meropenem concentrations in the cecal lumen of mice were quantified 4, 8, 24, 48 and 96 hours after subcutaneous injection. […] Drinking water was then evaluated as a means of continuously administering meropenem to mice, using bacterial density quantified by 16S ribosomal RNA (16S rRNA) gene quantitative PCR (qPCR) to gauge reductions of the intestinal microbiota.

[3] = Short chain fatty acids profiling of mouse feces by IC-MS; type: in vivo, mice; conditions: meropenem-treated allo-HSCT mice, day 18
Protocol: To determine the relative abundance of short chain fatty acids in mouse feces samples, extracts were prepared and analyzed by ultra-high resolution mass spectrometry (HRMS). Fecal pellets were homogenized with a Precellys Tissue Homogenizer. Metabolites were extracted using 1 mL ice-cold 0.1% Ammonium hydroxide in 80/20 (v/v) methanol/water. Extracts were centrifuged at 17,000 g for 5 min at 4° C., and supernatants were transferred to clean tubes, followed by evaporation to dryness under nitrogen. Dried extracts were reconstituted in deionized water, and 5 μL was injected for analysis by IC-MS. IC mobile phase A (MPA; weak) was water, and mobile phase B (MPB; strong) was water containing 100 mM KOH. A Thermo Scientific Dionex ICS-5000+ system included a Thermo IonPac AS11 column (4 μm particle size, 250×2 mm) with column compartment kept at 30° C. The autosampler tray was chilled to 4° C. The mobile phase flow rate was 360 μL/min, and the gradient elution program was: 0-5 min, 1% MPB; 5-25 min, 1-35% MPB; 25-39 min, 35-99% MPB; 39-49 min, 99% MPB; 49-50, 99-1% MPB. The total run time was 50 min. To assist the desolvation for better sensitivity, methanol was delivered by an external pump and combined with the eluent via a low dead volume mixing tee. Data were acquired using a Thermo Orbitrap Fusion Tribrid Mass Spectrometer under ESI negative ionization mode at a resolution of 240,000. […]

[4] = Pharmacokinetics of meropenem in cecal contents by LC-MS; type: in vivo, C57BL/6 mice; conditions: 10 mg subcutaneous injection; 4, 8, 24, 48 and 96 hours
Protocol: C57BL/6 mice were treated with 10 mg of meropenem by subcutaneously injection. Cecal contents were collected prior to, 4, 8, 24, 48, and 96 hours after meropenem injection. To determine the relative abundance of meropenem in mouse cecum samples, extracts were prepared and analyzed with a Thermo Scientific TSQ Quantiva triple quadruple mass spectrometer coupled with a Dionex UltiMate 3000 HPLC system. Approximately 600 mgs of mouse cecal contents were homogenized with a Precellys Tissue Homogenizer. Metabolites were extracted using 100% acetonitrile. The tissue lysates were vortexed, centrifuged at 17,000 g for 5 min 5 at 4° C., and organic layers were transferred to clean tubes, followed by evaporation to dryness under nitrogen. Dried extracts were reconstituted in 50/50 (v/v) water/Acetonitrile, and 5 μL was injected for analysis by LC-MS. The mobile phase A is 100% water and mobile phase B is 0.1% Formic Acid in acetonitrile. Separation of meropenem was achieved on an Agilent SB-C18, 1.8 μm, 100×3 mm column. The flow rate was 250 μL/min at 35° C., and the gradient elution program was: 0-1 min, 5% MPB; 1-5 min, 5-50% MPB; 5-6 min, 50-95% MPB; 6-10 min, 95% MPB; 10-10.1 min, 95-5% MPB. The total run time was 15 min. The mass spectrometer was operated in the MRM positive ion electrospray mode with the transition m/z 384.1->68.0. […]

C[C@@H](O)[C@H]1C(=O)N2C(C(=O)O)=C(S[C@@H]3CN[C@H](C(=O)N(C)C)C3)[C@H](C)[C@H]12 [meropenem]
incidence of acute intestinal GvHD [1]: increased
meropenem concentration in stool [2]: 0.11 ± 0.07 µg/g
fecal levels of SCFAs [3]: reduced fecal levels of SCFAs
meropenem concentrations in the cecal lumen [4]: increase in meropenem concentrations in the cecum at 4 hours after injection, which rapidly declined afterwards
